{"source": "patent US10766865B2", "about": "“PKM2 modulators and methods for their use” (TOLERO PHARMACEUTICALS, INC., priority 2012, dated 2020)", "key": {"Ls174T": {"system": "Ls174T", "assay": "Cell line sensitivity (viability, ATPlite)", "format": "cell-based", "conditions": "Homo sapiens, Colon, BME media, 72 hours, read-out: Sensitivity to Example 1 (IC50)", "method": "(§1) Viability effect of Example 1 against a subset of lung carcinoma cell lines was determined as follows. Cells were seeded at 1500 cells per well in 384-well plates in BME media, and compound was added in 0.1% DMSO 18 hours later. Viability was determined by ATPlite assay after 72 hours. (See FIG. 4C).\n(§2) Example 1 was tested against an expanded panel of cell lines according to the above procedure."}, "SW620": {"system": "SW620", "assay": "Cell line sensitivity (viability, ATPlite)", "format": "cell-based", "conditions": "Homo sapiens, SW-620; SW620, Colon; BME media, 72 hours; read-out: Sensitivity to Example 1 (IC50)", "method": "as §1, §2"}, "PC3": {"system": "PC3", "assay": "Cell line sensitivity (viability, ATPlite)", "format": "cell-based", "conditions": "Homo sapiens, PC-3; PC3, Prostate; BME media, 72 hours; read-out: Sensitivity to Example 1 (IC50)", "method": "as §1, §2"}, "SW480": {"system": "SW480", "assay": "Cell line sensitivity (viability, ATPlite)", "format": "cell-based", "conditions": "Homo sapiens; SW480, Colon; BME media, 72 hours; read-out: Sensitivity to Example 1 (IC50)", "method": "as §1, §2"}, "NCI-H460": {"system": "NCI-H460", "assay": "Cell line sensitivity (viability, ATPlite)", "format": "cell-based", "conditions": "Homo sapiens; NCI-H460, Lung; BME media, 72 hours; read-out: Sensitivity to Example 1 (IC50)", "method": "as §1, §2"}, "H1299": {"system": "H1299", "assay": "Cell line sensitivity (viability, ATPlite)", "format": "cell-based", "conditions": "Homo sapiens, NCI-H1299; H1299, Lung; BME media, 72 hours; read-out: Sensitivity to Example 1 (IC50)", "method": "as §1, §2"}, "A172": {"system": "A172", "assay": "Cell line sensitivity (viability, ATPlite)", "format": "cell-based", "conditions": "Homo sapiens, A 172; A172, Brain; BME media, 72 hours; read-out: Sensitivity to Example 1 (IC50)", "method": "as §1, §2"}, "786-O": {"system": "786-O", "assay": "Cell line sensitivity (viability, ATPlite)", "format": "cell-based", "conditions": "Homo sapiens, 786-0, Kidney, BME media, 72 hours, read-out: Sensitivity to Example 1 (IC50)", "method": "as §1, §2"}, "Malme3M": {"system": "Malme3M", "assay": "Cell line sensitivity (viability, ATPlite)", "format": "cell-based", "conditions": "Homo sapiens, Malme-3M, Melanoma, BME media, 72 hours, read-out: Sensitivity to Example 1 (IC50)", "method": "as §1, §2"}, "MCF7": {"system": "MCF7", "assay": "Cell line sensitivity (viability, ATPlite)", "format": "cell-based", "conditions": "Homo sapiens; MCF7, Breast; BME media, 72 hours; read-out: Sensitivity to Example 1 (IC50)", "method": "as §1, §2"}, "SW948": {"system": "SW948", "assay": "Cell line sensitivity (viability, ATPlite)", "format": "cell-based", "conditions": "Homo sapiens; SW948, Colon; BME media, 72 hours; read-out: Sensitivity to Example 1 (IC50)", "method": "as §1, §2"}, "NCI-H1975": {"system": "NCI-H1975", "assay": "Cell line sensitivity (viability, ATPlite)", "format": "cell-based", "conditions": "Homo sapiens; NCI-H1975, Lung; BME media, 72 hours; read-out: Sensitivity to Example 1 (IC50)", "method": "as §1, §2"}, "Skov3": {"system": "Skov3", "assay": "Cell line sensitivity (viability, ATPlite)", "format": "cell-based", "conditions": "Homo sapiens, SK-OV-3; Skov3, Ovarian; BME media, 72 hours; read-out: Sensitivity to Example 1 (IC50)", "method": "as §1, §2"}, "HepG2": {"system": "HepG2", "assay": "Cell line sensitivity (viability, ATPlite)", "format": "cell-based", "conditions": "Homo sapiens; HepG2, Liver; BME media, 72 hours; read-out: Sensitivity to Example 1 (IC50)", "method": "as §1, §2"}, "PSN-1": {"system": "PSN-1", "assay": "Cell line sensitivity (viability, ATPlite)", "format": "cell-based", "conditions": "Homo sapiens, PSN1; PSN-1, Pancreatic; BME media, 72 hours; read-out: Sensitivity to Example 1 (IC50)", "method": "as §1, §2"}, "HT29": {"system": "HT29", "assay": "Cell line sensitivity (viability, ATPlite)", "format": "cell-based", "conditions": "Homo sapiens, HT-29; HT29, Colon; BME media, 72 hours; read-out: Sensitivity to Example 1 (IC50)", "method": "as §1, §2"}, "A498": {"system": "A498", "assay": "Cell line sensitivity (viability, ATPlite)", "format": "cell-based", "conditions": "Homo sapiens; A498, Kidney; BME media, 72 hours; read-out: Sensitivity to Example 1 (IC50)", "method": "as §1, §2"}, "Hs766T": {"system": "Hs766T", "assay": "Cell line sensitivity (viability, ATPlite)", "format": "cell-based", "conditions": "Pancreatic, BME media, 72 hours, read-out: Sensitivity to Example 1 (IC50)", "method": "as §1, §2"}, "NCI-H522": {"system": "NCI-H522", "assay": "Cell line sensitivity (viability, ATPlite)", "format": "cell-based", "conditions": "Homo sapiens; NCI-H522, Lung; BME media, 72 hours; read-out: Sensitivity to Example 1 (IC50)", "method": "as §1, §2"}, "ACHN": {"system": "ACHN", "assay": "Cell line sensitivity (viability, ATPlite)", "format": "cell-based", "conditions": "Homo sapiens, Kidney, BME media, 72 hours, read-out: Sensitivity to Example 1 (IC50)", "method": "as §1, §2"}, "A549": {"system": "A549", "assay": "Cell line sensitivity (viability, ATPlite)", "format": "cell-based", "conditions": "Homo sapiens; A549, Lung; BME media, 72 hours; read-out: Sensitivity to Example 1 (IC50)", "method": "as §1, §2"}, "PKM2 [1]": {"target": "T1, PKM2 (Homo sapiens, UniProt P14618)", "assay": "PKM2 Biochemical Assay", "description": "Full length, human PKM2 enzyme was obtained from Promab (Richmond, Calif.). All reagents, unless otherwise noted, were obtained from Sigma (St. Louis, Mo.).\nCompounds were pre-incubated with 2 nM PKM2 in reaction buffer (50 mM Tris-HCl, pH 8.0, 200 mM KCl, 30 mM MgCl2, 2 mM DTT, 5% DMSO) for 30 min at ambient temperature. […] After 30 min, ATP formation was measured by Kinase Glo (Promega, Madison, Wis.), and AC50 values were determined using Prism (GraphPad Software, Inc., La Jolla, Calif.)."}, "PKM2 [2]": {"target": "T1, PKM2", "assay": "Cell-Based Pyruvate Kinase Activity Assay, NCI-H1299", "parameters": "host or cells: A549 or NCI-H1299 lung cancer cells", "conditions": "NCI-H1299, 30 minutes with compound, n = 4; read-out: Cellular PKM2 activation EC50", "method": "Cell-Based Pyruvate Kinase Activity Assay\nA549 or NCI-H1299 lung cancer cells were plated at 20,000 cells per well (96-well plate) in MEM media plus 10% FBS, with no additional glutamine or pyruvate. Following overnight incubation, cells were washed with PBS followed by 4 hour incubation in MEM media. Compounds were added to the cells in 1% final concentration DMSO. After 30 minutes, cells were lysed, and pyruvate kinase activity in lysates was determined by Pyruvate Kinase Activity Assay (BioVision, Milpitas, Calif.). Maximum velocity values were calculated from the kinetic data, and AC50 values were determined using Prism GraphPad Software (La Jolla, Calif.). Compound washout experiments were as described above, except after a 30 minute incubation with Example 244 (469 nM), the cells were washed with PBS followed by the addition of MEM media for the indicated time period, lysed and pyruvate kinase activity determined. Results are tabulated in Table 3 and presented graphically in FIGS. 6A and 6B."}}, "note": "Like-named read-outs stand apart in the source and are kept apart here.", "data": [{"smiles": "O=C(c1cc(C(F)(F)F)n[nH]1)N(Cc1ccc(O)cc1F)CC1CCC1", "note": "[Example 1, N-(cyclobutylmethyl)-N-(2-fluoro-4-hydroxybenzyl)-3-(trifluoromethyl)-1H-pyrazole-5-carboxamide]", "values": [{"measurement": "IC50", "setting": "Ls174T", "value": "> 30000", "unit": "nM"}, {"measurement": "IC50", "setting": "SW620", "value": 200, "unit": "nM"}, {"measurement": "IC50", "setting": "PC3", "value": 100, "unit": "nM"}, {"measurement": "IC50", "setting": "SW480", "value": 100, "unit": "nM"}, {"measurement": "IC50", "setting": "NCI-H460", "value": 5000, "unit": "nM"}, {"measurement": "IC50", "setting": "H1299", "value": 600, "unit": "nM"}, {"measurement": "IC50", "setting": "A172", "value": 2300, "unit": "nM"}, {"measurement": "IC50", "setting": "786-O", "value": "> 30000", "unit": "nM"}, {"measurement": "IC50", "setting": "Malme3M", "value": "> 30000", "unit": "nM"}, {"measurement": "IC50", "setting": "MCF7", "value": "> 30000", "unit": "nM"}, {"measurement": "IC50", "setting": "SW948", "value": "> 30000", "unit": "nM"}, {"measurement": "IC50", "setting": "NCI-H1975", "value": 90, "unit": "nM"}, {"measurement": "IC50", "setting": "Skov3", "value": 8000, "unit": "nM"}, {"measurement": "IC50", "setting": "HepG2", "value": "> 30000", "unit": "nM"}, {"measurement": "IC50", "setting": "PSN-1", "value": "> 30000", "unit": "nM"}, {"measurement": "IC50", "setting": "HT29", "value": 100, "unit": "nM"}, {"measurement": "IC50", "setting": "A498", "value": "> 30000", "unit": "nM"}, {"measurement": "IC50", "setting": "Hs766T", "value": 300, "unit": "nM"}, {"measurement": "IC50", "setting": "NCI-H522", "value": "> 30000", "unit": "nM"}, {"measurement": "IC50", "setting": "ACHN", "value": 100, "unit": "nM"}, {"measurement": "IC50", "setting": "A549", "value": 100, "unit": "nM"}, {"measurement": "Max. Resp.", "setting": "PKM2 [1]; % maximum response in a biochemical assay as compared with Fructose 1,6-bisphosphate", "value": 100, "unit": "%"}, {"measurement": "Emax", "setting": "PKM2 [1]; read-out: % FBP (extent of maximal activation, relative to FBP)", "value": "104 ± 11", "unit": "%"}, {"measurement": "AC50", "setting": "PKM2 [1]; read-out: AC50 (concentration of half-maximal PKM2 activation), Table 2, n = 6 to 10", "value": "11 ± 4", "unit": "nM"}, {"measurement": "AC50", "setting": "PKM2 [1]; read-out: PKM2 AC50, 2 nM PKM2, 75 μM ADP, 15 μM PEP, Kinase Glo", "value": 11, "unit": "nM"}, {"measurement": "Maximal PKM2 activity", "setting": "PKM2 [1]; relative to activity in DMSO controls (normalized to 100%), FIG. 1B", "value": "approximately 600%"}, {"measurement": "EC50", "setting": "PKM2 [2]", "value": "220 ± 50", "unit": "nM"}]}]}
